Where two headings read alike, the source gives them in different places.
Tests used:
human mTOR enzyme = human mTOR enzyme (Homo sapiens, UniProt P42345); assay: HTRF mTOR enzyme (kinase) assay; type: biochemical; conditions: 5 μM ATP, 0.2 μM GST-S6K, read-out: hMTOR IC50
[1] = tested on: mTORC2 activity: phosphorylated AKT Ser473 (pAKT S473) in PC3 cells; assay: mTOR target engagement assay, immunofluorescent cell-based, mTORC2 readout; conditions: Homo sapiens, PC-3, 1.5 h, 90 min treatment
Method in brief: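 Read-out is immunofluorescence intensity, normalized to DMSO-only wells and fitted to a sigmoidal Hill equation for IC50. The mTORC1 arm probes phospho-4E-BP1 Thr37/46 and the mTORC2 arm phospho-AKT Ser473.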

[2] = tested on: mTORC1 activity: phosphorylated 4E-BP1 Thr37/46 (p4E-BP1 Thr37/46) in PC3 cells; assay: mTOR target engagement assay, immunofluorescent cell-based, mTORC1 readout; conditions: Homo sapiens, PC-3, 1.5 h, rated class, 90 min treatment, read-out: P4EBP1 IC50
Method: The target engagement of mTOR kinase inhibitors was evaluated using an immunofluorescent cell-based assay. In this assay, inhibition of mTORC1 activity was measured by the reduction in the level of phosphorylated 4E-BP1Thr37/46 (p4E-BP1 Thr37/46), and inhibition of mTORC2 activity was measured by the reduction of phosphorylated AKTSer473 (pAKT S473).
PC3 cells (prostate tumor cell-line that contains a mutation in the tumor suppressor PTEN, that promotes the phosphorylation and activation of AKT and 4E-BP1) were used in the immunofluorescence assay. PC3 cells were seeded on 384 well plates (black clear bottom, Matrix #4332) overnight. PC3 cells were then treated with 40 μl of the serially diluted test compounds (in 5% fetal bovine serum, F12 medium containing 0.25% DMSO) for ninety minutes at 37° C. The test compound solution was removed, and the plates were washed gently two times with 25 μl phosphate buffered saline (PBS). The cells were fixed by adding 25 μl of Prefer reagent (from Anatech LTD, Cat#414, a glyoxal fixative for fixing proteins within a cell) for sixty minutes followed by three washes with PBS. 5% Goat serum in PBS/0.3% Triton was used to block non-specific binding (60 minutes).
The primary antibodies targeting pAKT S473 and p4E-BP1 Thr37/46 were diluted into PBS/0.3% Triton and incubated with the cells overnight at 4° C. The antibodies targeting pAKTS473 (Cat#4085, Cell signaling) and p4E-BP1 Thr37/46 (Cat#2855, Cell signaling) were used at a 1:100 dilution. Plates were washed three times with PBS/0.1% Tween 20 before adding the secondary antibody at a 1:200 dilution. (goat anti-rabbit containing a fluorescent label, Alexa Fluor 488, Cat#A11008, Invitrogen) in PBS/0.3% Triton for 60 minutes.
Finally, the plates were washed three times with PBS/0.1% Tween 20 and the fluorescent intensity was read using an Analyst HT from Molecular Devices. The fluorescent intensity values from the serially diluted compound treatment group were analyzed using the Xlfit 4 program ([…]) (Formula 205: Y=Bottom+(Top-Bottom)/(1+(IC50/X)^Hillslope) to generate the IC50 value. Where Top is the maximum signal without Compound (+DMSO only) and Bottom represents maximum inhibition. Y is the fluorescence at some compound concentration. The control used to determine the fluorescent intensities for 100% pAKT S473 or 100% phosphorylated p4E-BP1 Thr37/46 were measured from untreated wells that contained only DMSO, instead of test compound.

Chain of human mTOR enzyme (P42345 1360-2549 limits assumed): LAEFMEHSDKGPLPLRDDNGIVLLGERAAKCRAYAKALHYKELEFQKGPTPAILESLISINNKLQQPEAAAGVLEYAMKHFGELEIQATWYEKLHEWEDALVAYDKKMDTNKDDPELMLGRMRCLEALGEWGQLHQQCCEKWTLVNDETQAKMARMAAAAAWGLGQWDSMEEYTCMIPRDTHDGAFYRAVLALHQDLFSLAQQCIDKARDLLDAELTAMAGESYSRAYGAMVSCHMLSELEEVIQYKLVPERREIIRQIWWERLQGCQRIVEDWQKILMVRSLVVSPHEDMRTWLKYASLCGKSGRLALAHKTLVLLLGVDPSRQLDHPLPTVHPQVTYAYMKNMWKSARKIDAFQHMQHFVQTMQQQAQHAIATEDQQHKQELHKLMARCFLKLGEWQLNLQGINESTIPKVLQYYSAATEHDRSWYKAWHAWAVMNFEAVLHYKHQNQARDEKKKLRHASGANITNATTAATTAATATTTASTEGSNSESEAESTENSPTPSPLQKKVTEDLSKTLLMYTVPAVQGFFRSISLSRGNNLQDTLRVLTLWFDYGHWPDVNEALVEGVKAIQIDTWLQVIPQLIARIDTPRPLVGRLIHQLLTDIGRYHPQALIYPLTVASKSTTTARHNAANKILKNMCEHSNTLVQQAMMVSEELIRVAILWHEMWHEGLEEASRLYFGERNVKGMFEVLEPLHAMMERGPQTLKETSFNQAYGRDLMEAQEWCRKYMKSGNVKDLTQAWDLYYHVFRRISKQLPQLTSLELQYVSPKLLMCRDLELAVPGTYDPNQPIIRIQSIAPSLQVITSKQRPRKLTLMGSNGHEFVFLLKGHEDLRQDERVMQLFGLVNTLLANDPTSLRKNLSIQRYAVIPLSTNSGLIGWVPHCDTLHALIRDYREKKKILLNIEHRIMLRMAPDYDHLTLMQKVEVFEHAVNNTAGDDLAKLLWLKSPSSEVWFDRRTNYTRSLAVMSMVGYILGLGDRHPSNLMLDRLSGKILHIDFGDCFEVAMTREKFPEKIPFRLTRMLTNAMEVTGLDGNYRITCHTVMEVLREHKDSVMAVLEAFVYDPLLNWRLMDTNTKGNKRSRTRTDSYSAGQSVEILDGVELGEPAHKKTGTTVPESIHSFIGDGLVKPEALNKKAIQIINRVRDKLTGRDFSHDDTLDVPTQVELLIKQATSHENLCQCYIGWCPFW

Row | Compound | IC50 (human mTOR enzyme; rated class) [nM] | IC50 ([1]; rated class) [nM] | IC50 [2] [nM] | IC50 (human mTOR enzyme; numeric value) [nM] | IC50 ([1]; numeric value) [nM]
1 | COCCO[C@]1(C(N)=O)CC[C@@H](c2nc3c(-c4ccc(-c5ncc[nH]5)nc4)cnn3c(N)c2S(C)(=O)=O)CC1 [Compound 116] | 1 to 100 | 100 to 1000 | 1 to 100 | – | –
2 | COCCO[C@]1(C(=O)O)CC[C@@H](c2nc3c(-c4ccc(-c5ccc(OC)c(F)c5)nc4)cnn3c(N)c2Br)CC1 [Compound 68, (1R,4R)-4-(7-amino-6-bromo-3-(6-(3-fluoro-4-methoxyphenyl)-pyridin-3-yl)-pyrazolo[1,5-a]pyrimidin-5-yl)-1-(2-methoxyethoxy) cyclohexanecarboxylic acid] | 1 to 100 | 2000 to 5000 | 2000 to 5000 | – | –
3 | COC[C@]1(C(=O)O)CC[C@@H](c2nc3c(-c4cnn(-c5ccccc5)c4)cnn3c(N)c2C(C)=O)CC1 [Compound 21, (1S,4S)-4-(6-acetyl-7-amino-3-(1-phenyl-1H-pyrazol-4-yl)pyrazolo[1,5-a]pyrimidin-5-yl)-1-(methoxymethyl)-cyclohexane-carboxylic acid] | 1 to 100 | 100 to 1000 | – | – | –
4 | CC(=O)c1c(C2CCC(O)(CO)CC2)nc2c(-c3ccc(-c4ccccc4)nc3)cnn2c1N (stereo not shown) [Compound 138, 1-(7-amino-5-(4-hydroxy-4-(hydroxymethyl)cyclohexyl)-3-(6-phenylpyridin-3-yl)pyrazolo[1,5-a]pyrimidin-6-yl)ethanone] | 1 to 100 | 100 to 1000 | – | – | –
5 | C[C@]1(C(=O)O)CC[C@@H](c2nc3c(-c4ccc(-c5ccccc5)nc4)cnn3c(N)c2Br)CC1 [Compound 2, (1S,4S)-4-(7-amino-6-bromo-3-(6-phenylpyridin-3-yl)pyrazolo[1,5-a]pyrimidin-5-yl)-1-methylcyclohexanecarboxylic acid] | 1 to 100 | 2000 to 5000 | – | – | –
6 | COC1(CO)CCC(c2nc3c(-c4ccc(-c5ccccc5)nc4)cnn3c(N)c2Br)CC1 (stereo not shown) [Compound 82, (4-(7-amino-6-bromo-3-(6-phenylpyridin-3-yl)pyrazolo[1,5-a]pyrimidin-5-yl)-1-methoxycyclohexyl)methanol] | 1 to 100 | 100 to 1000 | – | – | –
7 | COC[C@]1(C(=O)O)CC[C@H](c2nc3c(-c4cnc5ccc(F)cc5c4)cnn3c(N)c2Br)CC1 [Compound 7, (1R,4R)-4-(7-amino-6-bromo-3-(6-fluoroquinolin-3-yl)pyrazolo[1,5-a]pyrimidin-5-yl)-1-(methoxymethyl)-cyclohexane-carboxylic acid] | 1 to 100 | 1000 to 2000 | – | – | –
8 | COCCO[C@]1(C(=O)O)CC[C@@H](c2nc3c(-c4ccc(-c5ccccc5)nc4)cnn3c(N)c2SC)CC1 [Compound 63, (1R,4R)-4-(7-amino-6-(methylthio)-3-(6-phenylpyridin-3-yl)pyrazolo[1,5-a]pyrimidin-5-yl)-1-(2-methoxyethoxy)cyclohexanecarboxylic acid] | 1 to 100 | 1000 to 2000 | – | – | –
9 | COc1ccc(-c2ccc(-c3cnn4c(N)c(C(C)=O)c(C5CCC(CO)(OC)CC5)nc34)cn2)cn1 (stereo not shown) [Compound 171, 1-(7-amino-5-(4-(hydroxymethyl)-4-methoxycyclohexyl)-3-(6′-methoxy-2,3′-bipyridin-5-yl)pyrazolo[1,5-a]pyrimidin-6-yl)ethanone] | 1 to 100 | 2000 to 5000 | – | – | –
10 | COC[C@]1(C(=O)O)CC[C@@H](c2nc3c(-c4cnc5ccc(F)cc5c4)cnn3c(N)c2C(C)=O)CC1 [Compound 23, (1S,4S)-4-(6-acetyl-7-amino-3-(6-fluoroquinolin-3-yl)pyrazolo[1,5-a]pyrimidin-5-yl)-1-(methoxymethyl)-cyclohexane-carboxylic acid] | 1 to 100 | 2000 to 5000 | – | – | –
11 | CO[C@]1(C(=O)O)CC[C@@H](c2nc3c(-c4cnc5ccc(F)cc5c4)cnn3c(N)c2C(C)=O)CC1 [Compound 39, (1R,4R)-4-(6-acetyl-7-amino-3-(6-fluoroquinolin-3-yl)pyrazolo[1,5-a]pyrimidin-5-yl)-1-methoxycyclohexane-carboxylic acid] | 1 to 100 | 100 to 1000 | – | – | –
12 | COC[C@]1(C(=O)O)CC[C@@H](c2nc3c(-c4cnc5ccc(F)cc5c4)cnn3c(N)c2Br)CC1 [Compound 8, (1S,4S)-4-(7-amino-6-bromo-3-(6-fluoroquinolin-3-yl)pyrazolo[1,5-a]pyrimidin-5-yl)-1-(methoxymethyl)-cyclohexane-carboxylic acid] | 1 to 100 | 5000 to 15000 | – | – | –
13 | CC(=O)c1c(N)n2ncc(-c3ccc(-c4ccccc4)nc3)c2nc1[C@H]1CC[C@](F)(C(=O)O)CC1 [Compound 16, (1S,4S)-(6-acetyl-7-amino-3-(6-phenylpyridin-3-yl)pyrazolo[1,5-a]pyrimidin-5-yl)-1-fluorocyclohexane-carboxylic acid] | 1 to 100 | 1000 to 2000 | – | – | –
14 | COCC1(C(=O)O)CCC(c2nc3c(-c4ccc(-c5ccccc5)nc4)cnn3c(N)c2Br)CC1 (stereo not shown) [Compound 5, 4-(7-amino-6-bromo-3-(6-phenylpyridin-3-yl)pyrazolo[1,5-a]pyrimidin-5-yl)-1-(methoxymethyl)-cyclohexane-carboxylic acid] | 1 to 100 | 100 to 1000 | – | – | –
15 | COC(=O)c1cc(-c2ccc(-c3cnn4c(N)c(C(C)=O)c([C@H]5CC[C@@](O)(CO)CC5)nc34)cn2)ccc1OC [Compound 153, methyl 5-(5-(6-acetyl-7-amino-5-((1R,4R)-4-hydroxy-4-(hydroxymethyl)-cyclohexyl)-pyrazolo-[1,5-a]pyrimidin-3-yl)pyridin-2-yl)-2-methoxybenzoate] | 1 to 100 | 5000 to 15000 | – | – | –
16 | Nc1c(Br)c([C@H]2CC[C@](O)(CC(=O)O)CC2)nc2c(-c3ccc(-c4ccccc4)nc3)cnn12 [Compound 77, 2-((1S,4S)-4-(7-amino-6-bromo-3-(6-phenylpyridin-3-yl)pyrazolo[1,5-a]pyrimidin-5-yl)-1-hydroxycyclohexyl)-acetic acid] | 1 to 100 | 1000 to 2000 | – | – | –
17 | CC(=O)c1c(C2CCC(O)(CO)CC2)nc2c(-c3cnn(-c4ccccc4)c3)cnn2c1N (stereo not shown) [Compound 141, 1-(7-amino-5-(4-hydroxy-4-(hydroxymethyl)cyclohexyl)-3-(1-phenyl-1H-pyrazol-4-yl)pyrazolo[1,5-a]pyrimidin-6-yl)ethanone] | 1 to 100 | 1 to 100 | – | – | –
18 | Nc1c(Br)c(C2CCC(O)(CO)CC2)nc2c(-c3ccc(-c4ccccc4)nc3)cnn12 (stereo not shown) [Compound 134, 4-(7-amino-6-bromo-3-(6-phenylpyridin-3-yl)pyrazolo[1,5-a]pyrimidin-5-yl)-1-(hydroxymethyl)cyclohexanol] | – | – | – | 7.37 | 209
19 | CC(=O)c1c(C2CCC(O)(CO)CC2)nc2c(-c3cnc4ccc(F)cc4c3)cnn2c1N (stereo not shown) [Compound 142, 1-(7-amino-3-(6-fluoroquinolin-3-yl)-5-(4-hydroxy-4-(hydroxymethyl)-cyclohexyl)-pyrazolo-[1,5-a]pyrimidin-6-yl)ethanone] | 1 to 100 | 1 to 100 | – | – | –
20 | COCCOC[C@]1(CO)CC[C@@H](c2nc3c(-c4ccc(-c5ccccc5)nc4)cnn3c(N)c2Br)CC1 [Compound 169, ((1R,4R)-4-(7-amino-6-bromo-3-(6-phenylpyridin-3-yl)pyrazolo[1,5-a]pyrimidin-5-yl)-1-((2-methoxyethoxy)-methyl)cyclohexyl)-methanol] | 1 to 100 | 2000 to 5000 | – | – | –
21 | Nc1c(Br)c([C@H]2CC[C@](F)(C(=O)O)CC2)nc2c(-c3ccc(-c4ccccc4)nc3)cnn12 [Compound 3, (1S,4S)-4-(7-amino-6-bromo-3-(6-phenylpyridin-3-yl)pyrazolo[1,5-a]pyrimidin-5-yl)-1-fluorocyclohexane-carboxylic acid] | 1 to 100 | 1000 to 2000 | – | – | –
22 | CO[C@]1(C(=O)O)CC[C@@H](c2nc3c(-c4cnc5ccc(F)cc5c4)cnn3c(N)c2Br)CC1 [Compound 33, (1R,4R)-4-(7-amino-6-bromo-3-(6-fluoroquinolin-3-yl)pyrazolo[1,5-a]pyrimidin-5-yl)-1-methoxycyclohexane-carboxylic acid] | 1 to 100 | 1000 to 2000 | – | – | –
